By EC50 is commonly meant the concentration that produces a half-maximal response. Low readings indicate an effect from little substance, high ones a need for much substance.

DNA topoisomerase 2-alpha (Homo sapiens), sequence (P11388 whole entry, looked up): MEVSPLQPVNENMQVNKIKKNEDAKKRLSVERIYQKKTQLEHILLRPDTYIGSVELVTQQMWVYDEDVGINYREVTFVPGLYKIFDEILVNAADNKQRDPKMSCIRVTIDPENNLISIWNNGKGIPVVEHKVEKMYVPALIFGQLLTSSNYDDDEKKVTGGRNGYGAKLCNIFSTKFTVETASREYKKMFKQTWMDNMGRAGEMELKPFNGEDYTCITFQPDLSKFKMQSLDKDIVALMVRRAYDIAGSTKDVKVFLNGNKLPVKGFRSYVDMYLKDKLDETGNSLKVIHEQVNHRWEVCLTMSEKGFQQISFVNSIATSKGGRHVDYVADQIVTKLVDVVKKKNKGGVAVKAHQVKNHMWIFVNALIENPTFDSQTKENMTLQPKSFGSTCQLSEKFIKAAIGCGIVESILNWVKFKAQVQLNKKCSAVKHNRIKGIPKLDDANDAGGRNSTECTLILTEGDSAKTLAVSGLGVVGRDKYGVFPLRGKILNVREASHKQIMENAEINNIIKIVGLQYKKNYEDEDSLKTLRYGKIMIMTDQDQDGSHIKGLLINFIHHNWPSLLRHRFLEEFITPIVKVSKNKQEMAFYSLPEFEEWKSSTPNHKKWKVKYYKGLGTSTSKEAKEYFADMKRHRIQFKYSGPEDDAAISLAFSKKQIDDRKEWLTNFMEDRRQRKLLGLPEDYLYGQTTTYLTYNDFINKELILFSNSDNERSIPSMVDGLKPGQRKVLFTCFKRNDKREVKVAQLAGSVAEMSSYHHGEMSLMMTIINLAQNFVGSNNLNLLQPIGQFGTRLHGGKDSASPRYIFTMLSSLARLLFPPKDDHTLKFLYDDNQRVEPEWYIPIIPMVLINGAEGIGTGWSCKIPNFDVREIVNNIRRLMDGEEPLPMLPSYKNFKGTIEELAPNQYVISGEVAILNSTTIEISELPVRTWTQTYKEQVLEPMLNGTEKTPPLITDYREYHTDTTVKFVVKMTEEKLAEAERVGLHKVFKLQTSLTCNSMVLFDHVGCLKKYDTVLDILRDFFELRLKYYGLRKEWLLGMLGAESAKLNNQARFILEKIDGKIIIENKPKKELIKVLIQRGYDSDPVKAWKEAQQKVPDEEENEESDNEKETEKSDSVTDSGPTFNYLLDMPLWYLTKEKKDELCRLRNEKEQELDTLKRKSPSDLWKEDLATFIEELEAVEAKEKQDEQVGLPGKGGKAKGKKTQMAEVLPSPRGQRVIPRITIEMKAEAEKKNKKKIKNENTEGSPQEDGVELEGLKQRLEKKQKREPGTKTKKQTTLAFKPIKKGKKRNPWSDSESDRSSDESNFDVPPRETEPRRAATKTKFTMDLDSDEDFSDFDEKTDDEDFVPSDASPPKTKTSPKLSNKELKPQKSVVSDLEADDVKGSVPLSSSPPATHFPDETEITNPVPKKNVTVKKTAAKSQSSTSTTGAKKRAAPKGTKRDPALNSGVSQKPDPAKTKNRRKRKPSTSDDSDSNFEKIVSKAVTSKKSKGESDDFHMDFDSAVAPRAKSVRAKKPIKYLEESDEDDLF

The assay addresses DNA topoisomerase 2-alpha (Homo sapiens) (UniProt P11388). Briefly: In vitro inhibition of Topoisomerase II-mediated DNA cleavage using supercoiled pBR322 plasmid DNA.
In turn, `O=C1c2c(c3c4cc(O)ccc4n(C4OC(CO)C(O)C(O)C4O)c3c3[nH]c4ccccc4c23)C(=O)N1NC(CO)CO` (stereo not drawn) [3-hydroxy-6-(2-hydroxy-1-hydroxymethylethylamino)-13-(3,4,5-trihydroxy-6-hydroxymethyltetrahydro-2H-2-pyranyl)-6,7,12,13-tetrahydro-5H-indolo[2,3-a]pyrrolo[3,4-c]carbazole-5,7-dione] displayed an EC50 greater than 50 µM.

As to `O=C1c2c(c3c4cc(O)ccc4n(C4OC(CO)C(O)C(O)C4O)c3c3[nH]c4cc(O)ccc4c23)C(=O)N1NC(CO)CO` (stereo not drawn) [2,9-dihydroxy-6-(2-hydroxy-1-hydroxymethylethylamino)-12-(3,4,5-trihydroxy-6-hydroxymethyltetrahydro-2H-2-pyranyl)-6,7,12,13-tetrahydro-5H-indolo[2,3-a]pyrrolo[3,4-c]carbazole-5,7-dione], the EC50 is greater than 50 µM.

Regarding `O=C1c2c(c3c4cccc(O)c4n(C4OC(CO)C(O)C(O)C4O)c3c3[nH]c4c(O)cccc4c23)C(=O)N1NC(CO)CO` (stereo not drawn) [1,11-dihydroxy-6-(2-hydroxy-1-hydroxymethylethylamino)-12-(3,4,5-trihydroxy-6-hydroxymethyltetrahydro-2H-2-pyranyl)-6,7,12,13-tetrahydro-5H-indolo[2,3-a]pyrrolo[3,4-c]carbazole-5,7-dione], the 50% effective concentration (EC50) was greater than 50 µM.

Regarding `O=C1c2c(c3c4ccc(O)cc4n(C4OC(CO)C(O)C(O)C4O)c3c3[nH]c4c(O)cc(O)cc4c23)C(=O)N1NC(CO)CO` (stereo not drawn) [1,3,10-trihydroxy-6-(2-hydroxy-1-hydroxymethylethylamino)-12-(3,4,5-trihydroxy-6-hydroxymethyltetrahydro-2H-2-pyranyl)-6,7,12,13-tetrahydro-5H-indolo[2,3-a]pyrrolo[3,4-c]carbazole-5,7-dione], the EC50 was greater than 50 µM.

Take `O=C1c2c(c3c4cccc(O)c4n(C4OC(CO)C(O)C(O)C4O)c3c3[nH]c4ccc(O)cc4c23)C(=O)N1NC(CO)CO` (stereo not drawn) [1,9-dihydroxy-6-(2-hydroxy-1-hydroxymethylethylamino)-13-(3,4,5-trihydroxy-6-hydroxymethyltetrahydro-2H-2-pyranyl)-6,7,12,13-tetrahydro-5H-indolo[2,3-a]pyrrolo[3,4-c]carbazole-5,7-dione]: the concentration giving a half-maximal response (EC50) was greater than 50 µM.

With `O=C1c2c(c3c4cc(O)ccc4n(C4OC(CO)C(O)C(O)C4O)c3c3[nH]c4c(O)cccc4c23)C(=O)N1NC(CO)CO` (stereo not drawn) [1,9-dihydroxy-6-(2-hydroxy-1-hydroxymethylethylamino)-12-(3,4,5-trihydroxy-6-hydroxymethyltetrahydro-2H-2-pyranyl)-6,7,12,13-tetrahydro-5H-indolo[2,3-a]pyrrolo[3,4-c]carbazole-5,7-dione], the EC50 is greater than 50 µM.

In the case of `O=C1c2c(c3c4ccccc4n(C4OC(CO)C(O)C(O)C4O)c3c3[nH]c4c(O)cccc4c23)C(=O)N1NC(CO)CO` (stereo not drawn) [1-hydroxy-6-(2-hydroxy-1-hydroxymethylethylamino)-12-(3,4,5-trihydroxy-6-hydroxymethyltetrahydro-2H-2-pyranyl)-6,7,12,13-tetrahydro-5H-indolo[2,3-a]pyrrolo[3,4-c]carbazole-5,7-dione], the half-maximal effective concentration (EC50) is greater than 50 µM.

`O=C1c2c(c3c4ccc(O)cc4n(C4OC(CO)C(O)C(O)C4O)c3c3[nH]c4ccc(O)cc4c23)C(=O)N1NC(CO)CO` (stereo not drawn) [2,9-dihydroxy-6-(2-hydroxy-1-hydroxymethylethylamino)-13-(3,4,5-trihydroxy-6-hydroxymethyltetrahydro-2H-2-pyranyl)-6,7,12,13-tetrahydro-5H-indolo[2,3-a]pyrrolo[3,4-c]carbazole-5,7-dione] had an EC50 greater than 50 µM.

For `O=C1c2c(c3c4cc(O)cc(O)c4n(C4OC(CO)C(O)C(O)C4O)c3c3[nH]c4c(O)cc(O)cc4c23)C(=O)N1NC(CO)CO` (stereo not drawn) [1,3,9,11-tetrahydroxy-6-(2-hydroxy-1-hydroxymethylethylamino)-12-(3,4,5-trihydroxy-6-hydroxymethyltetrahydro-2H-2-pyranyl)-6,7,12,13-tetrahydro-5H-indolo[2,3-a]pyrrolo[3,4-c]carbazole-5,7-dione], the EC50 was greater than 50 µM.

Consider `O=C1c2c(c3c4cccc(O)c4n(C4OC(CO)C(O)C(O)C4O)c3c3[nH]c4cc(O)ccc4c23)C(=O)N1NC(CO)CO` (stereo not drawn) [1,10-dihydroxy-6-(2-hydroxy-1-hydroxymethylethylamino)-13-(3,4,5-trihydroxy-6-hydroxymethyltetrahydro-2H-2-pyranyl)-6,7,12,13-tetrahydro-5H-indolo[2,3-a]pyrrolo[3,4-c]carbazole-5,7-dione], for which the EC50 is greater than 50 µM.

`O=C1c2c(c3c4ccc(O)cc4n(C4OC(CO)C(O)C(O)C4O)c3c3[nH]c4ccccc4c23)C(=O)N1NC(CO)CO` (stereo not drawn) [2-hydroxy-6-(2-hydroxy-1-hydroxymethylethylamino)-13-(3,4,5-trihydroxy-6-hydroxymethyltetrahydro-2H-2-pyranyl)-6,7,12,13-tetrahydro-5H-indolo[2,3-a]pyrrolo[3,4-c]carbazole-5,7-dione] displayed an EC50 greater than 50 µM.

The compound `O=C1c2c(c3c4ccccc4n(C4OC(CO)C(O)C(O)C4O)c3c3[nH]c4cccc(O)c4c23)C(=O)N1NC(CO)CO` (stereo not drawn) [4-hydroxy-6-(2-hydroxy-1-hydroxymethylethylamino)-12-(3,4,5-trihydroxy-6-hydroxymethyltetrahydro-2H-2-pyranyl)-6,7,12,13-tetrahydro-5H-indolo[2,3-a]pyrrolo[3,4-c]carbazole-5,7-dione] returned an EC50 greater than 50 µM.

`O=C1c2c(c3c4ccccc4n(C4OC(CO)C(O)C(O)C4O)c3c3[nH]c4ccc(O)cc4c23)C(=O)N1NC(CO)CO` (stereo not drawn) [3-hydroxy-6-(2-hydroxy-1-hydroxymethylethylamino)-12-(3,4,5-trihydroxy-6-hydroxymethyltetrahydro-2H-2-pyranyl)-6,7,12,13-tetrahydro-5H-indolo[2,3-a]pyrrolo[3,4-c]carbazole-5,7-dione] registered an EC50 greater than 50 µM.

Regarding `O=C1c2c(c3c4ccccc4n(C4OC(CO)C(O)C(O)C4O)c3c3[nH]c4cc(O)ccc4c23)C(=O)N1NC(CO)CO` (stereo not drawn) [2-hydroxy-6-(2-hydroxy-1-hydroxymethylethylamino)-12-(3,4,5-trihydroxy-6-hydroxymethyltetrahydro-2H-2-pyranyl)-6,7,12,13-tetrahydro-5H-indolo[2,3-a]pyrrolo[3,4-c]carbazole-5,7-dione], the EC50 is greater than 50 µM.

`O=C1c2c(c3c4cccc(O)c4n(C4OC(CO)C(O)C(O)C4O)c3c3[nH]c4ccccc4c23)C(=O)N1NC(CO)CO` (stereo not drawn) [1-hydroxy-6-(2-hydroxy-1-hydroxymethylethylamino)-13-(3,4,5-trihydroxy-6-hydroxymethyltetrahydro-2H-2-pyranyl)-6,7,12,13-tetrahydro-5H-indolo[2,3-a]pyrrolo[3,4-c]carbazole-5,7-dione] came in with a concentration for a half-maximal effect (EC50) greater than 50 µM.

With `O=C1c2c(c3c4cc(O)ccc4n(C4OC(CO)C(O)C(O)C4O)c3c3[nH]c4ccc(O)cc4c23)C(=O)N1NC(CO)CO` (stereo not drawn) [3,9-dihydroxy-6-(2-hydroxy-1-hydroxymethylethylamino)-12-(3,4,5-trihydroxy-6-hydroxymethyltetrahydro-2H-2-pyranyl)-6,7,12,13-tetrahydro-5H-indolo[2,3-a]pyrrolo[3,4-c]carbazole-5,7-dione], the EC50 was greater than 50 µM.

`O=C1c2c(c3c4ccc(O)cc4n(C4OC(CO)C(O)C(O)C4O)c3c3[nH]c4c(O)cccc4c23)C(=O)N1NC(CO)CO` (stereo not drawn) [1,10-dihydroxy-6-(2-hydroxy-1-hydroxymethylethylamino)-12-(3,4,5-trihydroxy-6-hydroxymethyltetrahydro-2H-2-pyranyl)-6,7,12,13-tetrahydro-5H-indolo[2,3-a]pyrrolo[3,4-c]carbazole-5,7-dione] displayed an EC50 greater than 50 µM.

Compound `O=C1c2c(c3c4ccc(O)cc4n(C4OC(CO)C(O)C(O)C4O)c3c3[nH]c4cc(O)ccc4c23)C(=O)N1NC(CO)CO` (stereo not drawn) [2,10-dihydroxy-6-(2-hydroxy-1-hydroxymethylethylamino)-12-(3,4,5-trihydroxy-6-hydroxymethyltetrahydro-2H-2-pyranyl)-6,7,12,13-tetrahydro-5H-indolo[2,3-a]pyrrolo[3,4-c]carbazole-5,7-dione] showed an EC50 greater than 50 µM.

Values taken from BindingDB's records for doi:10.1016/s0960-894x(99)00595-8 (Banyu Tsukuba Research Institute In Collaboration With …, 2000).
